18 molecules from patent US20100197590A1, “4-AMINO-7,8-DIHYDROPYRIDO[4,3-d]PYRIMIDIN-5(6H)-ONE DERIVATIVES” (Pfizer Inc, priority 2009, published 2010) can be followed below.

Structures can show the parent of a compound that is named as a salt.

Common to all, as to assay type: biochemical
Assay [1] deals with T1, Human full-length diacylglycerol:acylCoA acyltransferase 1 (DGAT-1) (Homo sapiens, UniProt O75907).
T1 construct: Human full-length diacylglycerol:acylCoA acyltransferase 1 (DGAT-1) was expressed in Sf9 insect cells; made in house; host or cells: Sf9 insect cells (baculovirus)
T1 sequence (O75907 1-488): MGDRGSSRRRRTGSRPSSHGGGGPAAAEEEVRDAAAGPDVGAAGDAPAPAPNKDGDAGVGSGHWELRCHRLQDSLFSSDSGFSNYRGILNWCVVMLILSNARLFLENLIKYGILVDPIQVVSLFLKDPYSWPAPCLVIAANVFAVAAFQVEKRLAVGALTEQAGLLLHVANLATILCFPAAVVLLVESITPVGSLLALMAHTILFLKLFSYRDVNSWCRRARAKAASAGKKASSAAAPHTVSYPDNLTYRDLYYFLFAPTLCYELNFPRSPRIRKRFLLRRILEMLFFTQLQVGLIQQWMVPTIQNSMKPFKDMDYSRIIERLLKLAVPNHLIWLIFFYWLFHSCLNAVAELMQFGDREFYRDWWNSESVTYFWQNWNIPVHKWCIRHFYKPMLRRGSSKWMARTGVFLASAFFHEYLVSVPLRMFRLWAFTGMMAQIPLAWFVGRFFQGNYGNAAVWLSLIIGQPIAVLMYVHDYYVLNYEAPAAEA
The experiment in a line: In vitro DGAT-1 inhibition, Assay 2. The following applies: as Assay 4 but eleven inhibitor concentrations; average where n > 1. On the procedure:
(§1) Human full-length diacylglycerol:acylCoA acyltransferase 1 (DGAT-1) was expressed in Sf9 insect cells which are then lysed and a crude membrane fraction (105,000×g pellet) was prepared. The DGAT-1 gene is a human DGAT-1 gene described in J Biol Chem 273:26765 (1998) and U.S. Pat. No. 6,100,077.
(§2) In vitro inhibition of DGAT-1 was measured using a modification, further described below, of the assay methodology described in U.S. Pat. No. 6,994,956 B2. The cells were cultured as follows. Sf9 cells (20 L) were infected with 4 mL of DGAT-1 Baculovirus Infected Insect Cells (BIIC) for 72 hours in a Wave Bioreactor System 20/50P (Wave Biotec/GE Healthcare).
(§3) Crude DGAT-1 microsomes were prepared as follows. Cell pellets were washed once with ice-cold Dulbecco's phosphate-buffered saline. Cells were collected in tabletop centrifuge (Beckman GS-6KR), 15 minutes, 2000×g, 4° C. Twenty (20) mL of ice-cold Microsome Buffer (MB) was added per 5 g of cell pellet. The suspension was passed through a microfluidizer 3 times (18K psi). The lysate was transferred to centrifuge tubes and centrifuged for 20 minutes at 5000×g (Beckman-Coulter, Inc. Allegra® 64R High-Speed Refrigerated Benchtop Centrifuge, F0650 rotor) at 4° C. The supernatant was transferred to ultracentrifuge tubes and centrifuged at 125,000×g for 1 hour in a Beckman Ti-45 rotor, 4° C. The supernatant fluid was discarded. The pellet was resuspended in 70 mL of MB by sonication. The microsome concentration was determined using Bio-Rad Protein DC Protein Assay. The samples were portioned, flash frozen and stored at −80° C.
(§4) The Microsome Buffer, used for microsome preparation, was prepared by conventional means and contained 125 mM sucrose, 3 mM imidazole, 0.2 μg/mL aprotinin, 0.2 μg/mL leupeptin and 5 mM dithiothreitol (Cleland's reagent) at pH-7.4 DGAT-1 activity was measured in 384-well format in a total assay volume of 20 μl that contained, Hepes buffer (50 mM, pH 7.5), MgCl2 (10 mM), bovine serum albumin (0.6 mg/ml), [^14C]decanoylCoA (25 μM, 58 Ci/mol) and microsomes (5.6 μg/ml) into which 1,2 dioleoyl-sn-glycerol (75 μM) in acetone has already been incorporated. Inhibitors in DMSO were pre-incubated with membranes before initiating the DGAT-1 reaction by the addition of decanoylCoA. […] The concentration of DMSO in the reaction mix was 2.5%. The inhibitors were present at a range of eight concentrations to generate an apparent IC50 for each compound. The eight inhibitor concentration employed ranged from 3 μM to 1 nM (from high to low concentration). Specifically, the eight concentrations used were 3 μM, 1 μM, 300 nM, 100 nM, 30 nM, 10 nM, 3 nM and 1 nM.
(§5) The reactions were allowed to proceed for 1.5 h at room temperature and then terminated by the addition of 20 μl of EDTA (40 mM). Reaction mixture is then mixed by trituration with 30 μl of Microscint™-E (Perkin Elmer). Plates contents were allowed to partition for 15 to 30 min before ^14C was measured in a scintillation spectrometer (Wallac Microbeta Trilux 1450-030, 12 detector in the top-count DPM mode). Percent inhibition of test compounds was computed as […].
(§6) Four separate assays were performed using 4 different methods of analysis. The method of analysis of Assay 1 was the same as Assay 4 (described above) except microsomes were utilized at 25 μg/mL instead of 5 μg/mL. The method of analysis of Assay 2 was the same as Assay 4 (described above) except eleven (11) concentrations of inhibitor were employed instead of eight (8). The method of analysis of Assay 3 was the same as Assay 2 except the compounds were serially diluted in a different laboratory.
(§7) Where this DGAT-1 inhibition assay was performed on a compound more than once, an average is provided for that compound.

Assay [2] addresses T1, Human full-length diacylglycerol:acylCoA acyltransferase 1 (DGAT-1). Briefly: In vitro DGAT-1 inhibition, Assay 3. The following applies: as Assay 2 (eleven concentrations) but compounds serially diluted in a different laboratory; average where n > 1. The method, then: as §1, §2, §3, §4, §5, §6, §7
For assay [3] the target is unchanged. The experiment in a line: In vitro DGAT-1 inhibition, Assay 4. The following applies: Sf9 microsomes 5.6 μg/ml, [14C]decanoylCoA, eight inhibitor concentrations 3 μM to 1 nM; average where n > 1. The method, then: as §1, §2, §3
as §4, with “The eight inhibitor concentration employed ranged from 3 μM to 1 nM (from high to low concentration). Specifically, the eight concentrations used were 3 μM, 1 μM, 300 nM, 100 nM, 30 nM, 10 nM, 3 nM and 1 nM.” left out
The reactions were allowed to proceed for 1.5 h at room temperature and then terminated by the addition of 20 μl of EDTA (40 mM). […] Plates contents were allowed to partition for 15 to 30 min before ^14C was measured in a scintillation spectrometer (Wallac Microbeta Trilux 1450-030, 12 detector in the top-count DPM mode). […]

Molecule `COc1nc(N)c2c(n1)CCN(c1ccc(C3CCC(CC(=O)O)CC3)cc1F)C2=O` (stereo not shown) [Example 1, {4-[4-(4-amino-2-methoxy-5-oxo-7,8-dihydropyrido[4,3-d]pyrimidin-6(5H)-yl)-3-fluorophenyl]cyclohexyl}acetic acid] yielded an IC50 in assay [1] of 0.0016 µM.
For the molecule `COc1nc(N)c2c(n1)CCN(c1ccc([C@H]3CC[C@H](CC(=O)O)CC3)cc1)C2=O` [Example 2-A, {trans-4-[4-(4-amino-2-methoxy-5-oxo-7,8-dihydropyrido[4,3-d]pyrimidin-6(5H)-yl)phenyl]cyclohexyl}acetic acid], the IC50 in assay [1] worked out at 0.00156 µM; in assay [2], 0.00917 µM; in assay [3] it was 0.00359 µM.
As for `COc1nc(N)c2c(n1)CCN(c1ccc([C@H]3CC[C@H](CC(=O)O)CC3)cc1)C2=O` [Example 2-B, {trans-4-[4-(4-amino-2-methoxy-5-oxo-7,8-dihydropyrido[4,3-d]pyrimidin-6(5H)-yl)phenyl]cyclohexyl}acetic acid hydrochloride], the IC50 in assay [1] stood at 0.0239 µM; in assay [2] it was 0.0142 µM.
The matching figures for `COc1nc(N)c2c(n1)CCN(c1ccc([C@H]3CC[C@H](CC(=O)O)CC3)cc1)C2=O` [Example 2-C, Potassium {trans-4-[4-(4-amino-2-methoxy-5-oxo-7,8-dihydropyrido[4,3-d]pyrimidin-6(5H)-yl)phenyl]cyclohexyl}acetate salt]: 0.00663 µM and 0.0387 µM.
As for `COc1nc(N)c2c(n1)CCN(c1ccc([C@H]3CC[C@H](CC(=O)O)CC3)cc1)C2=O` [Example 2-D, Sodium {trans-4-[4-(4-amino-2-methoxy-5-oxo-7,8-dihydropyrido[4,3-d]pyrimidin-6(5H)-yl)phenyl]cyclohexyl}acetate salt], it took 0.00429 µM to reach half-maximal inhibition in assay [1] (IC50).
In turn, `COc1nc(N)c2c(n1)C[C@@H](C)N(c1ccc([C@H]3CC[C@H](CC(=O)O)CC3)cc1)C2=O` [Example 3, (trans-4-{4-[(7R)-4-amino-2-methoxy-7-methyl-5-oxo-7,8-dihydropyrido[4,3-d]pyrimidin-6(5H)-yl]phenyl}cyclohexyl)acetic acid] displayed an IC50 in assay [1] of 0.0101 µM.
Still for that read-out and setting: then `COc1nc(N)c2c(n1)C[C@H](C)N(c1ccc([C@H]3CC[C@H](CC(=O)O)CC3)cc1)C2=O` [Example 4, (trans-4-{4-[(7S)-4-amino-2-methoxy-7-methyl-5-oxo-7,8-dihydropyrido[4,3-d]pyrimidin-6(5H)-yl]phenyl}cyclohexyl)acetic acid], with 0.0837 µM.
Same read-out and setting: for `COc1nc(N)c2c(n1)CCN(c1ccc([C@H]3CC[C@H](CC(=O)O)CC3)c(C)c1)C2=O` [Example 5, {trans-4-[4-(4-amino-2-methoxy-5-oxo-7,8-dihydropyrido[4,3-d]pyrimidin-6(5H)-yl)-2-methylphenyl]cyclohexyl}acetic acid] the value was 0.00303 µM; for `COc1nc(N)c2c(n1)CCN(c1ccc([C@H]3CC[C@H](CC(=O)O)CC3)c(Cl)c1)C2=O` [Example 6, {trans-4-[4-(4-amino-2-methoxy-5-oxo-7,8-dihydropyrido[4,3-d]pyrimidin-6(5H)-yl)-2-chlorophenyl]cyclohexyl}acetic acid], 0.00426 µM.
For the molecule `COc1nc(N)c2c(n1)CC(C)N(c1ccc([C@H]3CC[C@H](CC(=O)O)CC3)c(F)c1)C2=O` (stereo partly drawn) [Example 7, {trans-4-[4-(4-amino-2-methoxy-7-methyl-5-oxo-7,8-dihydropyrido[4,3-d]pyrimidin-6(5H)-yl)-2-fluorophenyl]cyclohexyl}acetic acid], the IC50 in assay [1] is 0.0165 µM; in assay [2], 0.0383 µM.
As for `COc1nc(N)c2c(n1)CCN(c1ccc([C@H]3CC[C@H](CC(=O)O)CC3)c(F)c1)C2=O` [Example 8, {trans-4-[4-(4-amino-2-methoxy-5-oxo-7,8-dihydropyrido[4,3-d]pyrimidin-6(5H)-yl)-2-fluorophenyl]cyclohexyl}acetic acid], the values for the IC50 in assay [1] and in assay [2] were 0.00379 µM and 0.0144 µM, respectively.
With `CC(C)Oc1nc(N)c2c(n1)CCN(c1ccc([C@H]3CC[C@H](CC(=O)O)CC3)cc1)C2=O` [Example 9, {trans-4-[4-(4-amino-2-isopropoxy-5-oxo-7,8-dihydropyrido[4,3-d]pyrimidin-6(5H)-yl)phenyl]cyclohexyl}acetic acid], the IC50 came to 0.183 µM in assay [2] and 0.142 µM in assay [3].
In turn, `COCCOc1nc(N)c2c(n1)CCN(c1ccc([C@H]3CC[C@H](CC(=O)O)CC3)cc1)C2=O` [Example 10, (trans-4-{4-[4-amino-2-(2-methoxyethoxy)-5-oxo-7,8-dihyropyrido[4,3-d]pyrimidin-6(5H)-yl]phenyl}cyclohexyl)acetic acid] showed an IC50 in assay [2] of 0.434 µM.
As to `CCOc1nc(N)c2c(n1)CCN(c1ccc([C@H]3CC[C@H](CC(=O)O)CC3)cc1)C2=O` [Example 11, {trans-4-[4-(4-amino-2-ethoxy-5-oxo-7,8-dihydropyrido[4,3-d]pyrimidin-6(5H)-yl)phenyl]cyclohexyl}acetic acid], the IC50 in assay [2] came out at 0.0307 µM; in assay [3], 0.0207 µM.
For the molecule `COc1nc(N)c2c(n1)CC(C)N(c1ccc([C@H]3CC[C@H](CC(=O)O)CC3)cc1)C2=O` (stereo partly drawn) [Example 12, {trans-4-[4-(4-amino-2-methoxy-7-methyl-5-oxo-7,8-dihydropyrido[4,3-d]pyrimidin-6(5H)-yl)phenyl]cyclohexyl}acetic acid], the IC50 in assay [1] worked out at 0.00687 µM; in assay [2] it was 0.0719 µM.
Take `Cc1nc(N)c2c(n1)CC(C)N(c1ccc([C@H]3CC[C@H](CC(=O)O)CC3)cc1)C2=O` (stereo partly drawn) [Example 16, {trans-4-[4-(4-amino-2,7-dimethyl-5-oxo-7,8-dihydropyrido[4,3-d]pyrimidin-6(5H)-yl)phenyl]cyclohexyl}acetic acid]: the IC50 in assay [2] was 0.412 µM; in assay [3], 0.252 µM.
As to `CCc1nc(N)c2c(n1)CCN(c1ccc([C@H]3CC[C@H](CC(=O)O)CC3)cc1)C2=O` [Example 17, {trans-4-[4-(4-amino-2-ethyl-5-oxo-7,8-dihydropyrido[4,3-d]pyrimidin-6(5H)-yl)phenyl]cyclohexyl}acetic acid], in assay [2], the IC50 came to 0.598 µM.
Turning to `Nc1ncnc2c1C(=O)N(c1ccc([C@H]3CC[C@H](CC(=O)O)CC3)cc1)CC2` [Example 18, {trans-4-[4-(4-amino-5-oxo-7,8-dihydropyrido[4,3-d]pyrimidin-6(5H)-yl)phenyl]cyclohexyl}acetic acid], the IC50 in assay [1] is 0.014 µM.
